Laboratory results from US10703745B2, “Acyl phosphonamidates and acyl benzylamines that are Bcl family antagonists for use in clinical management of conditions caused or mediated by senescent cells and for treating cancer” (Unity Biotechnology, Inc., priority 2018, dated 2020).

Assays:
[1] = test system: C57BL/6J mice with surgery-induced osteoarthritis; assay: Osteoarthritis model: histopathology of joint tissue; format: in vivo, mouse; settings: ACL surgery, 4 weeks post-surgery
Protocol: (§1) The model was implemented as follows. C57BL/6J mice underwent surgery to cut the anterior cruciate ligament of one rear limb to induce osteoarthritis in the joint of that limb. During week 3 and week 4 post-surgery, the mice were treated with 5.8 μg of Nutlin-3A (n=7) per operated knee by intra-articular injection, q.o.d. for 2 weeks. At the end of 4 weeks post-surgery, joints of the mice were monitored for presence of senescent cells, assessed for function, monitored for markers of inflammation, and underwent histological assessment.

[2] = test system: LDLR-/- mice fed a high fat diet; assay: Atherosclerosis model: RT-PCR of SASP factors and senescent cell markers in aortic arch; format: in vivo, mouse; settings: 25 mg/kg intraperitoneally, HFD
Protocol: Two groups of LDLR−/− mice (10 weeks) are fed a high fat diet (HFD) (Harlan Teklad TD.88137) having 42% calories from fat, beginning at Week 0 and throughout the study. Two groups of LDLR−/− mice (10 weeks) are fed normal chow (−HFD). From weeks 0-2, one group of HFD mice and −HFD mice are treated with Nutlin-3A (25 mg/kg, intraperitoneally). One treatment cycle is 14 days treatment, 14 days off. Vehicle is administered to one group of HFD mice and one group of −HFD mice. At week 4 (timepoint 1), one group of mice are sacrificed and to assess presence of senescent cells in the plaques. For the some of the remaining mice, Nutlin-3A and vehicle administration is repeated from weeks 4-6. […]
At the end of timepoint 1, LDLR−/− mice fed a HFD and treated with Nutlin-3A or vehicle were sacrificed (n=3, all groups), and the aortic arches were dissected for RT-PCR analysis of SASP factors and senescent cell markers. Values were normalized to GAPDH and expressed as fold-change versus age-matched, vehicle-treated LDLR−/− mice on a normal diet.
At the end of timepoint 2, LDLR−/− mice fed a HFD and treated with Nutlin-3A or vehicle (n=3 for all groups) were sacrificed, and aortic arches were dissected for RT-PCR analysis of SASP factors and senescent cell markers. Values were normalized to GAPDH and expressed as fold-change versus age-matched, vehicle-treated LDLR−/− mice on a normal diet.

[3] = test system: C57BL/6J mice with surgery-induced osteoarthritis; assay: Osteoarthritis model: weight bearing test of hind limbs; format: in vivo, mouse; settings: 4 weeks post-surgery
Protocol: as §1
Function of the limbs was assessed 4 weeks post-surgery by a weight bearing test to determine which leg the mice favored. The mice were allowed to acclimate to the chamber on at least three occasions prior to taking measurements. Mice were maneuvered inside the chamber to stand with one hind paw on each scale. The weight that was placed on each hind limb was measured over a three second period. At least three separate measurements were made for each animal at each time point. The results were expressed as the percentage of the weight placed on the operated limb versus the contralateral unoperated limb.

[4] = test system: LDLR-/- mice fed a high fat diet; assay: Atherosclerosis model: Sudan IV staining of aortic plaques; format: in vivo, mouse; settings: timepoint 3 (week 12), 25 mg/kg intraperitoneally, HFD
Protocol: (§2) Two groups of LDLR−/− mice (10 weeks) are fed a high fat diet (HFD) (Harlan Teklad TD.88137) having 42% calories from fat, beginning at Week 0 and throughout the study. Two groups of LDLR−/− mice (10 weeks) are fed normal chow (−HFD). From weeks 0-2, one group of HFD mice and −HFD mice are treated with Nutlin-3A (25 mg/kg, intraperitoneally). One treatment cycle is 14 days treatment, 14 days off. Vehicle is administered to one group of HFD mice and one group of −HFD mice. At week 4 (timepoint 1), one group of mice are sacrificed and to assess presence of senescent cells in the plaques. For the some of the remaining mice, Nutlin-3A and vehicle administration is repeated from weeks 4-6. At week 8 (timepoint 2), the mice are sacrificed and to assess presence of senescent cells in the plaques. The remaining mice are treated with Nutlin-3A or vehicle from weeks 8-10. At week 12 (timepoint 3), the mice are sacrificed and to assess the level of plaque and the number of senescent cells in the plaques.
(§3) At the end of timepoint 3, LDLR−/− mice fed a HFD and treated with Nutlin-3A or vehicle (n=3 for all groups) were sacrificed, and aortas were dissected and stained with Sudan IV to detect the presence of lipid. Body composition of the mice was analyzed by MRI, and circulating blood cells were counted by Hemavet™.

[5] = test system: 3MR or INK-ATTAC mice exposed to cigarette smoke; assay: Cigarette smoke COPD model, oxygen saturation by pulse oximeter; format: in vivo, mouse; settings: after two months of cigarette smoke exposure, compared with untreated controls
Source text: The mice used in this study include the 3MR strain, described in US 2017/0027139 A1 and in Demaria et al., Dev Cell. 2014 Dec. 22; 31(6): 722-733. The 3MR mouse has a transgene encoding thymidine kinase that converts the prodrug ganciclovir (GCV) to a compound that is lethal to cells. The enzyme in the transgene is placed under control of the p16 promoter, which causes it to be specifically expressed in senescent cells. Treatment of the mice with GCV eliminates senescent cells.
Other mice used in this study include the INK-ATTAC strain, described in US 2015/0296755 A1 and in Baker et al., Nature 2011 Nov. 2; 479(7372):232-236. The INK-ATTAC mouse has a transgene encoding switchable caspase 8 under control of the p16 promoter. The caspase 8 can be activated by treating the mice with the switch compound AP20187, whereupon the caspase 8 directly induces apoptosis in senescent cells, eliminating them from the mouse.
To conduct the experiment, six-week-old 3MR (n=35) or INK-ATTAC (n=35) mice were chronically exposed to cigarette smoke generated from a Teague TE-10 system, an automatically-controlled cigarette smoking machine that produces a combination of side-stream and mainstream cigarette smoke in a chamber, which is transported to a collecting and mixing chamber where varying amounts of air is mixed with the smoke mixture. The COPD protocol was adapted from the COPD core facility at Johns Hopkins University (Rangasamy et al., 2004, J. Clin. Invest. 114:1248-1259; Yao et al., 2012, J. Clin. Invest. 122:2032-2045).
Mice received a total of 6 hours of cigarette smoke exposure per day, 5 days a week for 6 months. Each lighted cigarette (3R4F research cigarettes containing 10.9 mg of total particulate matter (TPM), 9.4 mg of tar, and 0.726 mg of nicotine, and 11.9 mg carbon monoxide per cigarette [University of Kentucky, Lexington, Ky.]) was puffed for 2 seconds and once every minute for a total of 8 puffs, with the flow rate of 1.05 L/min, to provide a standard puff of 35 cm3. The smoke machine was adjusted to produce a mixture of side stream smoke (89%) and mainstream smoke (11%) by smoldering 2 cigarettes at one time. The smoke chamber atmosphere was monitored for total suspended particulates (80-120 mg/m3) and carbon monoxide (350 ppm). […]
After two months of cigarette smoke (CS) exposure, lung function was assessed by monitoring oxygen saturation using the MouseSTAT PhysioSuite™ pulse oximeter (Kent Scientific). […] Mice were monitored for 30 seconds and the average peripheral capillary oxygen saturation (SpO2) measurement over this duration was calculated.

[6] = test system: C57BL/6J mice with surgery-induced osteoarthritis; assay: Osteoarthritis model (ACL surgery): qRT-PCR of senescence markers and SASP factors in operated joints; format: in vivo, mouse; settings: 5.8 μg per operated knee intra-articular, 4 weeks post-surgery
Protocol: as §1
Two control groups of mice were included in the studies performed: one group comprising C57BL/6J or 3MR mice that had undergone a sham surgery (n=3) (i.e., surgical procedures followed except for cutting the ACL) and intra-articular injections of vehicle parallel to the GCV (ganciclovir) treated group; and one group comprising C57BL/6J or 3MR mice that had undergone an ACL surgery and received intra-articular injections of vehicle (n=5) parallel to the GCV-treated group. RNA from the operated joints of mice from the Nutlin-3A treated mice was analyzed for expression of SASP factors (mmp3, IL-6) and senescence markers (p16). qRT-PCR was performed to detect mRNA levels.

[7] = test system: LDLR-/- mice fed a high fat diet; assay: Atherosclerosis model: body composition by MRI and circulating blood cell counts; format: in vivo, mouse; settings: timepoint 3
Protocol: as §2, §3

cancer cells = settings: cited from earlier work
[8] = test system: primary cells from patients with B-cell malignancies; settings: in vitro; cited from earlier work

## COc1ccc(C2=N[C@@H](c3ccc(Cl)cc3)[C@@H](c3ccc(Cl)cc3)N2C(=O)N2CCNC(=O)C2)c(OC(C)C)c1 [Nutlin-3A]
[1]
  destruction of the proteoglycan layer (histopathology): completely abrogated this effect
[2]; timepoint 1 (week 4), one treatment cycle
  expression of SASP factors and senescent cell markers MMP3, MMP13, PAI1, p21, IGFBP2, IL-1A, IL-1B in aortic arch: reduced expression of several SASP factors and senescent cell markers
[2]; timepoint 2 (week 8), multiple treatment cycles
  expression of SASP factors and senescent cell markers in aortic arch: reduced expression of most markers
[3]
  weight placed on operated limb versus contralateral unoperated limb (favoring of unoperated hind limb): abrogated this effect
[4]
  reduction of surface area covered by plaques in the descending aorta: about 45%
[5]
  SpO2 levels: statistically significant increases
[6]; q.o.d. for 2 weeks, mRNA
  expression of IL-6 in the tissue: reduced the expression back to below the level of the controls
  expression of MMP13 in the tissue: reduced the expression back to below the level of the controls
  expression of p16 in the tissue: reduced the expression back to below the level of the controls
[6]
  senescent cells in the joint: cleared senescent cells from the joint
[7]; mice fed the high fat diet
  body fat composition: decreased
  mass: decreased
[7]
  lymphocyte counts versus vehicle treated mice: equivalent
  platelet counts versus vehicle treated mice: equivalent

## CN(C)CC[C@H](CSc1ccccc1)Nc1ccc(S(=O)(=O)NC(=O)c2ccc(N3CCN(Cc4ccccc4-c4ccc(Cl)cc4)CC3)cc2)cc1[N+](=O)[O-] [ABT-737]
Cancer cells
  dose-limiting toxicity in human patients: dose-limiting thrombocytopenia
  efficacy against cancer cells in human patients: effective against some types of cancer cells
[8]
  sensitivity of primary cells from patients with B-cell malignancies: sensitive

## Nc1nc(O)c2ncn(COC(CO)CO)c2n1 [ganciclovir]
[5]
  SpO2 levels: statistically significant increases

## CC[C@H](C(=O)N1CCCC[C@H]1C(=O)O[C@H](CCc1ccc(OC)c(OC)c1)c1cccc(OCC(=O)NCC(CNC(=O)COc2cccc([C@@H](CCc3ccc(OC)c(OC)c3)OC(=O)[C@@H]3CCCCN3C(=O)[C@@H](CC)c3cc(OC)c(OC)c(OC)c3)c2)CN(C)C)c1)c1cc(OC)c(OC)c(OC)c1 [AP2018]
[5]
  SpO2 levels: statistically significant increases

## CC1(C)CCC(c2ccc(Cl)cc2)=C(CN2CCN(c3ccc(C(=O)NS(=O)(=O)c4ccc(N[C@H](CCN5CCOCC5)CSc5ccccc5)c(S(=O)(=O)C(F)(F)F)c4)cc3)CC2)C1 [ABT-263, Navitoclax]
[5]
  SpO2 levels: statistically significant increases
